Results from patent US20100298381A1, “GAMMA SECRETASE MODULATORS” (Schering Corporation, priority 2007, published 2010).

Legend:
[1] = test system: Aβ42 in HEK293 cells overexpressing APP with Swedish and London mutations; experiment: Secretase reaction and Aβ analysis in whole cells, Aβ42 (ECL sandwich immunoassay); type: cell-based; conditions: Homo sapiens, 5 hour at 37° C.
Experimental: (§1) Secretase Reaction and Aβ Analysis in Whole Cells: HEK293 cells overexpressing APP with Swedish and London mutations were treated with the specified compounds for 5 hour at 37° C. in […] of DMEM medium containing 10% fetal bovine serum. At the end of the incubation, total Aβ, Aβ40 and Aβ42 were measured using electrochemiluminescence (ECL) based sandwich immunoassays. Total Aβ was determined using a pair of antibodies TAG-WO2 and biotin-4G8, Aβ40 was identified with antibody pairs TAG-G2-10 and biotin-4G8, while Aβ42 was identified with TAG-G2-11 and biotin-4G8. The ECL signal was measured using Sector Imager 2400 (Meso Scale Discovery).

[2] = test system: total Aβ in HEK293 cells overexpressing APP with Swedish and London mutations; experiment: Secretase reaction and Aβ analysis in whole cells, total Aβ (ECL sandwich immunoassay); type: cell-based; conditions: Homo sapiens, 5 hour at 37° C.
Experimental: as §1

COc1cc(/C=C2\N/C(=N\CCO)N(Cc3ccc(F)cc3)C2=O)ccc1-n1cnc(C)c1 [Example B4]
IC50 [1]: 46 to 94 nM
IC50 [2]: 778 to 20000 nM

CCCC/N=C1\N/C(=C\c2ccc(-n3cnc(C)c3)c(OC)c2)C(=O)N1Cc1cc(F)c(F)c(F)c1 [Example B22]
IC50 [1]: 46 to 94 nM
IC50 [2]: 778 to 20000 nM

COc1cc(/C=C2\N/C(=N\CC(F)(F)F)N(Cc3cc(F)c(F)c(F)c3)C2=O)ccc1-n1cnc(C)c1 [Example B23]
IC50 [1]: 46 to 94 nM
IC50 [2]: 778 to 20000 nM

CC/N=C1\N/C(=C\c2ccc(-n3cnc(C)c3)c(OC)c2)C(=O)N1Cc1cc(F)c(F)c(F)c1 [Example A9t]
IC50 [1]: 46 to 94 nM
IC50 [2]: 778 to 20000 nM

COc1cc(/C=C2\N/C(=N\CC(F)(F)F)N([C@H](C)c3ccc(F)cc3)C2=O)ccc1-n1cnc(C)c1 [Example B18]
IC50 [1]: 46 to 94 nM
IC50 [2]: 778 to 20000 nM

COc1cc(/C=C2\NC(=N)N([C@H](C)c3ccc(F)cc3)C2=O)ccc1-n1cnc(C)c1 [Example B13]
IC50 [1]: 46 to 94 nM
IC50 [2]: 778 to 20000 nM

CC/N=C1\N/C(=C\c2ccc(-n3cnc(C)c3)c(OC)c2)C(=O)N1Cc1ccc(F)cc1 [Example B2]
IC50 [1]: 46 to 94 nM
IC50 [2]: 778 to 20000 nM

CC/N=C1\N/C(=C\c2ccc(-n3cnc(C)c3)c(OC)c2)C(=O)N1C(C)c1cc(F)c(F)c(F)c1 (centres unmarked) [Example B8]
IC50 [1]: 46 to 94 nM
IC50 [2]: 778 to 20000 nM

COc1cc(/C=C2\N/C(=N\CC3CC3)N(Cc3ccc(F)cc3)C2=O)ccc1-n1cnc(C)c1 [Example B6]
IC50 [1]: 46 to 94 nM
IC50 [2]: 778 to 20000 nM

CC/N=C1\N/C(=C\c2ccc(-n3cnc(C)c3)c(OC)c2)C(=O)N1[C@H](C)c1ccc(F)cc1 [Example A9m]
IC50 [1]: 46 to 94 nM
IC50 [2]: 778 to 20000 nM

CCCC/N=C1\N/C(=C\c2ccc(-n3cnc(C)c3)c(OC)c2)C(=O)N1Cc1ccc(F)cc1 [Example B5]
IC50 [1]: 46 to 94 nM
IC50 [2]: 778 to 20000 nM

CCCC/N=C1\N/C(=C\c2ccc(-n3cnc(C)c3)c(OC)c2)C(=O)N1[C@H](C)c1ccc(F)cc1 [Example B14]
IC50 [1]: 46 to 94 nM
IC50 [2]: 778 to 20000 nM

COc1cc(/C=C2\N/C(=N\CCO)N(Cc3cc(F)c(F)c(F)c3)C2=O)ccc1-n1cnc(C)c1 [Example A9u]
IC50 [1]: 46 to 94 nM
IC50 [2]: 778 to 20000 nM

COc1cc(/C=C2\N/C(=N\CCO)N([C@H](C)c3ccc(F)cc3)C2=O)ccc1-n1cnc(C)c1 [Example B15]
IC50 [1]: 46 to 94 nM
IC50 [2]: 778 to 20000 nM

COc1cc(/C=C2\N/C(=N\CC3CC3)N(Cc3cc(F)c(F)c(F)c3)C2=O)ccc1-n1cnc(C)c1 [Example A9r]
IC50 [1]: 46 to 94 nM
IC50 [2]: 778 to 20000 nM

COc1cc(/C=C2\NC(=N)N(C(C)c3cc(F)c(F)c(F)c3)C2=O)ccc1-n1cnc(C)c1 (centres unmarked) [Example B7]
IC50 [1]: 46 to 94 nM
IC50 [2]: 778 to 20000 nM

COc1cc(/C=C2\N/C(=N\CC3CC3)N(C(C)c3cc(F)c(F)c(F)c3)C2=O)ccc1-n1cnc(C)c1 (centres unmarked) [Example B12]
IC50 [1]: 46 to 94 nM
IC50 [2]: 778 to 20000 nM

CCCC/N=C1\N/C(=C\c2ccc(-n3cnc(C)c3)c(OC)c2)C(=O)N1C(C)c1cc(F)c(F)c(F)c1 (centres unmarked) [Example B11]
IC50 [1]: 46 to 94 nM
IC50 [2]: 778 to 20000 nM

COc1cc(/C=C2\N/C(=N\CCO)N(C(C)c3cc(F)c(F)c(F)c3)C2=O)ccc1-n1cnc(C)c1 (centres unmarked) [Example B10]
IC50 [1]: 46 to 94 nM
IC50 [2]: 778 to 20000 nM
